Measured values taken from publication PMC10714399, “Open Source Antibiotics: Simple Diarylimidazoles Are Potent against Methicillin-Resistant Staphylococcus aureus” (ACS Infectious Diseases, 2023).
Converted amounts (≈) assume the structure as drawn.

Tested on: Staphylococcus aureus NCTC 13373 (mecA-positive; methicillin-resistant)
Assay: In vitro antibacterial activity, MIC (UCL School of Pharmacy assay), MRSA
Format: cell-based
Settings: Staphylococcus aureus; UCL assay; read-out: MRSA MIC (ug/mL) (UCL)
Method in brief: (§1)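 Broth microdilution MIC in isosensitest broth; inoculum from overnight tryptone soya agar culture suspended in PBS to A600 0.1 (~1 × 10^8 CFU/mL), then diluted 1:100. Compounds tested as 2-fold series from 32 to 0.03 μg/mL, DMSO at most 2%; vancomycin as quality control.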

| MIC | SMILES |
| --- | --- |
| 8 µg/mL (≈ 21.1 µM) | CC(C)CN(c1ccc(F)cc1)c1c(-c2ccccn2)nc2ccc(F)cn12 [OSA_001024] |

Tested on: S. aureus ATCC 25923 (methicillin-susceptible)
Assay: In vitro antibacterial activity, MIC (UCL), MSSA
Format: cell-based, Staphylococcus aureus
Settings: Staphylococcus aureus; UCL assay; read-out: MSSA MIC (ug/mL) (UCL)
Method in brief: as §1

| MIC | SMILES |
| --- | --- |
| 8 µg/mL (≈ 21.1 µM) | CC(C)CN(c1ccc(F)cc1)c1c(-c2ccccn2)nc2ccc(F)cn12 [OSA_001024] |

Tested on: Staphylococcus aureus ATCC 43300 MRSA
Assay: CO-ADD antibacterial assay (growth inhibition, MIC), MRSA
Format: cell-based
Settings: read-out: MRSA MIC (CO-ADD)
Method: Hit Confirmation of active compounds by whole cell growth inhibition assays was conducted as an 8-point dose response to determine the Minimum Inhibitory Concentration (MIC), in duplicate (n=2). The inhibition of growth is measured against those microorganisms that […]
Included in the Hit Confirmation were 5 bacteria: Escherichia coli, Klebsiella pneumoniae, Acinetobacter baumannii, Pseudomonas aeruginosa and Staphylococcus aureus, and 2 fungi Candida albicans and Cryptococcus neoformans. […]
Assay Parameters Bacteria Fungi HEK293 Haemolysis […]
Duplicate (n=2) Duplicate (n=2) Duplicate (n=2) Duplicate (n=2)
QC Control MIC: Control MIC: Control CC50: Control HC10:
Non-Binding Non-Binding TC, 384-well Polypropylene
Plates Surface (NBS), Surface (NBS), black wall/clear 384-well and 384-well plate 384-well plate bottom polystyrene 384-
Cation-adjusted Yeast Nitrogen DMEM
Media Mueller Hinton Base supplemented 0.9% NaCl
Hit Confirmation outcomes are detailed in individual Project reports, personalised for each Project Submission for each CO-ADD user.
Please see your data sheet with file extension P0XXX_HC_data.xlsx, for example CO-ADD Project P0100, P0100_HC_data.xlsx
Study: HC_data ID: HC-Procedures & Materials
Date: Last updated June 2018 Confidential Page 3 of 11
(1 picture or pasted object on this page, not shown here)
Samples were provided by the collaborator and stored frozen at -20 °C. Samples were prepared in DMSO and water to a final testing concentration of 32 µg/mL or 20 µM (unless otherwise indicated in the data sheet) and serially diluted 1:2 fold for 8 times. Each sample concentration was prepared in 384-well plates, non-binding surface plate (NBS; Corning 3640) for each bacterial/fungal strain, tissue-culture treated (TC-treated; Corning 3712/3764) black for mammalian cell types and polypropylene 384-well (PP; Corning 3657) for haemolysis assays, all in duplicate (n=2), and keeping the final DMSO concentration to a maximum of 0.5%. All the sample preparation was done using liquid handling robots. […]
detailed in the Data sheet for the individual Project.
All bacteria were cultured in Cation-adjusted Mueller Hinton broth (CAMHB) at 37 °C overnight. A sample of each culture was then diluted 40-fold in fresh broth and incubated at 37 °C for 1.5-3 h. The resultant mid-log phase cultures were diluted (CFU/mL measured by OD600), then added to each well of the compound containing plates, giving a cell density of 5×10^5 CFU/mL and a total volume of 50 µL. All the plates were covered and incubated at 37 °C for 18 h without shaking.
Inhibition of bacterial growth was determined measuring absorbance at 600 nm (OD600), using a Tecan M1000 Pro monochromator plate reader. The percentage of growth inhibition was calculated for each well, using the negative control (media only) and positive control (bacteria without inhibitors) on the same plate as references.
The percentage of growth inhibition was calculated for each well, using the negative control (media only) and positive control (bacteria without inhibitors) on the same plate. The MIC […]
by an inhibition ≥ 80%. In addition, the maximal percentage of growth inhibition is reported as DMax, indicating any compounds with partial activity.
Date: Last updated June 2018 Confidential Page 5 of 11
Material Code Brand/Supplier Cat No.
Compound preparation plate, Polypropylene PP Corning 3364
Assay Plates – Antimicrobial
Non-binding surface NBS 384w Corning 3640
Assay Plates – Cytotoxicity
Tissue culture treated Black/Clear bottom 384w Corning 3712
Assay Plates - Haemolysis PP-Haem Corning 3657 […]
Growth media - bacteria CAMHB Bacto Laboratories 212322
Culture agar - fungi YPD Becton Dickinson 242720
Growth media - fungi YNB Becton Dickinson 233520
Resazurin Sigma-Aldrich R7017
Dulbecco's Modified Eagle Medium DMEM Life Technologies 11995-073
Foetal Bovine Serum FBS Bovogen FFBS-500
0.9% NaCl Saline Baxter AHF7124
Sample Name Sample ID MW Conc. Solvent Source […]

| MIC | SMILES |
| --- | --- |
| > 32 µg/mL | c1ccc(-c2nc3ncccn3c2-c2ccc3c(c2)OCO3)nc1 [OSA_000815] |
| 16 µg/mL (≈ 54.9 µM) | COc1ccc(-c2c(-c3ccccn3)nc3n2CCC3)cc1 [OSA_000823] |
| 16 µg/mL (≈ 54.9 µM) | COc1cccc(-c2c(-c3ccccn3)nc3n2CCC3)c1 [OSA_000825] |
| 4 µg/mL (≈ 13 µM) | CSc1cccc(-c2c(-c3ccccn3)nc3n2CCC3)c1 [OSA_000826] |

Second part, the compound before the results:

| SMILES | MIC |
| --- | --- |
| c1cncc(-c2nc3n(c2-c2ccc4c(c2)OCO4)CCC3)c1 [OSA_000816] | > 32 µg/mL |
| c1cc(-c2nc3n(c2-c2ccc4c(c2)OCO4)CCC3)ccn1 [OSA_000817] | > 32 µg/mL |
| c1ccc(-c2nc3n(c2-c2ccc4c(c2)OCO4)CCCC3)nc1 [OSA_000818] | 16 µg/mL (≈ 50.1 µM) |
| c1ccc(-c2nc3n(c2-c2ccc4c(c2)OCCO4)CCC3)nc1 [OSA_000819] | 16 µg/mL (≈ 50.1 µM) |
| CSc1ccc(-c2c(-c3ccccn3)nc3n2CCC3)cc1 [OSA_000824] | 4 µg/mL (≈ 13 µM) |
| c1ccc(-c2nc3n(c2-c2ccc4c(c2)CCO4)CCC3)nc1 [OSA_000827] | 32 µg/mL (≈ 105 µM) |
| c1ccc(-c2nc3n(c2-c2ccc4c(c2)OCC4)CCC3)nc1 [OSA_000828] | 32 µg/mL (≈ 105 µM) |

Tested on: not listed separately
Assay: Aqueous solubility
Format: physicochemical
Settings: thermodynamic from solid; NEU; read-out: Aqueous Solubility (uM) (NEU)

| solubility | SMILES |
| --- | --- |
| 17 µM (≈ 6.43 µg/mL) | CC(C)CN(c1ccc(F)cc1)c1c(-c2ccccn2)nc2ccc(F)cn12 [OSA_001024] |

Tested on: not listed separately
Assay: LogD7.4 (Chrom Log D)
Format: physicochemical
Settings: chromatographic system (Chrom Log D); pH 7.4, NEU; read-out: LogD 7.4 (NEU)
Excerpt: To guide our initial SAR exploration work, we obtained liver microsomal intrinsic clearance data for 5 of the 18 compounds assayed by CO-ADD (Supporting Information - CDCO Report and Supporting Information - Biology). We then acquired intrinsic clearance (CLint), plasma protein binding (PPB), and solubility data on further compounds throughout the SAR campaign (Supporting Information - Biology, Tables S3 and S4). […] The more polar compounds (lower LogD) had reduced PPB and were more metabolically stable.
Table S4. ADME and Pharmacokinetics: compounds only appearing in the Supplementary […]
MRSA Aqueous HLM CLint Rat Hep CLint
Cmpd MIC Solubility Human PPB (%) (µL/min/mg (µL/min/10x6 LogD7.4
(µg/mL) (µM) protein) cells)
ADME and toxicity for compounds were measured according to procedures outlined in the manuscript submitted in parallel to this one;2 other procedures were used for those compounds analysed by Monash University (in vitro ADME) or UCL (toxicity), both described in the main

| chromatographic logD | SMILES |
| --- | --- |
| > 4.2 | CC(C)CN(c1ccc(F)cc1)c1c(-c2ccccn2)nc2ccc(F)cn12 [OSA_001024] |

Tested on: not listed separately
Assay: Human plasma protein binding (PPB)
Format: in vitro ADME
Settings: human, plasma, human plasma, NEU; read-out: Human PPB (%) (NEU) (converted)

| fraction unbound | SMILES |
| --- | --- |
| 0.0014 | CC(C)CN(c1ccc(F)cc1)c1c(-c2ccccn2)nc2ccc(F)cn12 [OSA_001024] |

Tested on: not listed separately
Assay: Human liver microsome intrinsic clearance
Format: in vitro ADME
Settings: human liver microsomes, NEU; read-out: HLM CLint (uL/min/mg protein) (NEU)

| microsomal CLint | SMILES |
| --- | --- |
| 51.2 µL/min/mg | CC(C)CN(c1ccc(F)cc1)c1c(-c2ccccn2)nc2ccc(F)cn12 [OSA_001024] |

Tested on: not listed separately
Assay: Rat hepatocyte intrinsic clearance
Format: in vitro ADME
Settings: rat hepatocytes, NEU; read-out: Rat Hep CLint (uL/min/10x6 cells) (NEU)

| hepatocyte CLint | SMILES |
| --- | --- |
| 117 µL/min/1e6 cells | CC(C)CN(c1ccc(F)cc1)c1c(-c2ccccn2)nc2ccc(F)cn12 [OSA_001024] |
